From patent US9598466B2, “Glycopeptide constructs and uses thereof” (Sloan-Kettering Institute for Cancer Research, priority 2008, dated 2017)

Legend:
human HLA-DR = conditions: literature (Southwood et al. 1998); cited from earlier work
[1] = ELISA of sera from vaccinated mice for antibodies against Gb3; type: in vivo, mice (C57BL/6J); conditions: mice vaccinated subcutaneously, unconjugated antigen plus an adjuvant such as QS-21; sera tested against Gb3-ceramide
Procedure: Groups of five mice were vaccinated subcutaneously with Gb3-MUC5AC or Gb3-MUC5AC-KLH conjugate plus adjuvant with appropriate controls. Sera were tested against Gb3-ceramide by ELISA.
Groups of five mice (C57BL/6J, female, 6-8 weeks old) were vaccinated three times with GB3-ceramide conjugate (5 μg equivalent of GB3), MUC5Ac peptide (5 μg equivalent of MUC5Ac), GB3-MUC5Ac-SH conjugate (5 μg equivalent of GB3-MUC5AC), GB3-MUC5Ac-KLH conjugate (1, 5 and 10 μg equivalent of GB3-MUC5Ac), Globo H-KLH conjugate (5 μg equivalent of GloboH) and KLH protein alone (5 μg equivalent of KLH) in 100 μL phosphate buffered saline (PBS) either with an adjuvant (20 μg) or without adjuvant. Vaccines were administered subcutaneously to each mouse on weeks 1, 2, 3, and 7. Mice were bled 7 days after the third vaccination and forth vaccination.
The presence of antibodies was tested by an enzyme-linked immunosorbent assay (ELISA). ELISAs were performed to determine antibody response against GB3, Globo H and KLH. The ELISA plates were coated with either GB3 antigen or Globo H at 0.2 μg/well and 0.1 μg/well respectively in ethanol or KLH at 0.1 μg/well in carbonate buffer (pH 10). The GB3-coated and Globo H coated plates were kept overnight at room temperature to evaporate ethanol, and KLH coated plates were incubated at 4° C. overnight. […] Absorbance was measured at 405 nm.

| Substance | binding capacity to human HLA-DR alleles (human HLA-DR) | number of different alleles of human HLA-DR bound (human HLA-DR) | antibodies against Gb3 by ELISA [1] |
| --- | --- | --- | --- |
| GLAYKFVVPGAATPY | prevalently in the nanomolar range | up to 9 | – |
| globotriaosyl ceramide [Gb3-ceramide] | – | – | failed to produce antibodies against Gb3 |
